Test results taken from patent publication US20040260060A1, “Constructs modified downstreams of the initiation codon for recombinant protein” (priority 2000, published 2004).

How the values were obtained:
[1] = system: chloramphenicol acetyltransferase (CAT); settings: IAA-induced extracts
From the text: The resistant colonies are isolated and subcultured several times on the selection medium in order to confirm their resistance phenotype. The clones selected at this stage are then subjected to a series of analyses: (i) extraction of the plasmid (Qiagen kit, Hilden, Germany) and sequencing of the region covering the RBS, (ii) culturing in Erlenmeyer flasks with induction by IAA and then estimation of the level of CAT expression by ELISA assay, (iii) electrophoresis, by SDS-PAGE, of the total proteins extracted from the preceding cultures and staining with Coomassie Blue to visualize total intracellular proteins. The clones are sequenced using the Dye Terminator kit on an ABI 373A sequencer (Perkin Elmer Applied Biosystems, Foster City, Calif.). The cultures in Erlenmeyer flasks are prepared by seeding 25 ml of TSBY (30 g/l tryptic soy broth (DIFCO)+5 g/l yeast extract (Difco)) medium+8 mg/l tetracycline with a colony on a dish or with a bacterial suspension stored at −80° C. Each preculture is incubated on a platform shaken at 200 rpm, at 37° C. overnight. A fraction is transferred into 50 ml of the same medium so as to reach an initial optical density equal to 1. […] The total proteins contained in the I and S fractions are analyzed by electrophoresis under denaturing conditions (SDS-PAGE) and staining with Coomassie Blue.

[2] = system: chloramphenicol acetyltransferase (CAT) reporter gene; assay: Level of CAT expression by ELISA after IAA induction in Erlenmeyer flask cultures; type: cell-based, E. coli; settings: for CAT expression: relative to wild-type vector pTEXwt = 1
From the text: The supernatant is marked “S”.
The results (mean±standard deviation) were obtained on two independent experiments. […]
The methods for determining the expression are those used in the examples above.

TOP10 x pTEXCAT bacteria = assay: Chloramphenicol resistance of TOP10 x pTEXCAT bacteria on agar dishes, colony count and growth; type: cell-based, E. coli; parameters: key to qualitative criterion of colony growth: −: absence of growth; +++: maximum growth; settings: for number of colonies counted: 18 h at 37° C., approximately 100 cells seeded
Description: The libraries are screened based on the hypothesis that the clones overexpressing the CAT enzyme will have increased resistance to chloramphenicol.
The numbers (upper row) indicate the number of colonies counted after incubation for 18 h at 37° C., each medium having been seeded with approximately 100 cells.
The index of the lower row is a qualitative criterion of colony growth (−=absence of growth to +++=maximum growth).
This implies that clones which overproduce CAT due to an optimized RBS region may either develop more rapidly than the wild-type population at a chloramphenicol concentration lower than the MIC (mininimum inhibitory concentration), or develop in the presence of chloramphenicol concentrations which are lethal for the wild-type population.

[3] = chloramphenicol 200 μg/ml, IAA = 0
[4] = chloramphenicol 200 μg/ml, IAA = 25 μg/ml
[5] = chloramphenicol 300 μg/ml, IAA = 25 μg/ml
[6] = chloramphenicol 600 μg/ml, IAA = 0
[7] = chloramphenicol 600 μg/ml, IAA = 25 μg/ml
[8] = chloramphenicol 700 μg/ml, IAA = 0
[9] = chloramphenicol 700 μg/ml, IAA = 25 μg/ml
[10] = chloramphenicol 800 μg/ml, IAA = 0
[11] = chloramphenicol 800 μg/ml, IAA = 25 μg/ml

## pTEXCAT: wild-type reference plasmid: pTEXmp18 (Ptrp promoter, TrpL leader) with the CAT reporter gene cloned at EcoRI/PstI; SEQ ID No. 19 (DNA AAGGGUAUCUAGAAUUAUGAAAGCAAUUUUCGUACUGAAUGCGGAAUUC)
[1]
  CAT band (28 kDa) on SDS-PAGE gel: only a band of low intensity
[2]
  CAT expression: 1
[2]; relative, level 1 arbitrarily assigned to pTEXCAT, mean±standard deviation of two independent experiments
  Level of CAT expression: 1

## pTEX9′: clone from the (R7N6) library, SEQ ID No. 31, deletion of region Ile4Asn8 (DNA UGAGGAGAGUAAUCAUGAAAGCAGCGGAAUUC; expressed or natural sequence)
[2]
  CAT expression: 249

## pTEX12′: vector derived from pTEX9′, initiation codon directly upstream of the cloning site, SEQ ID No. 37 (DNA UGAGGAGAGUAAUCAUGGAAUUC)
[2]
  CAT expression: 155

## O=C(O)C=Cc1c[nH]c2ccccc12 [IAA, 3-β indole acrylic acid]
TOP10 x pTEXCAT bacteria; between 300 and 600 μg/ml of chloramphenicol
  development of TOP10 x pTEXCAT bacteria in the presence of IAA versus its absence: more strongly

## pTEX10′: vector derived from pTEX9′ with additional deletion, SEQ ID No. 33 (DNA UGAGGAGAGUAAUCAUGAAAGCAGAAUUC)
[2]
  CAT expression: 253

## O=C(N[C@H](CO)[C@H](O)c1ccc([N+](=O)[O-])cc1)C(Cl)Cl [Chloramphenicol, chloramphenicol]
TOP10 x pTEXCAT bacteria; [3]
  qualitative criterion of colony growth: +++
  number of colonies counted: 91
TOP10 x pTEXCAT bacteria; [4]
  qualitative criterion of colony growth: +++
  number of colonies counted: 65
TOP10 x pTEXCAT bacteria; chloramphenicol 300 μg/ml, IAA = 0
  number of colonies counted: 74
TOP10 x pTEXCAT bacteria; [5]
  qualitative criterion of colony growth: +++
  number of colonies counted: 76
TOP10 x pTEXCAT bacteria; chloramphenicol 400 μg/ml, IAA = 0
  number of colonies counted: 73
TOP10 x pTEXCAT bacteria; chloramphenicol 400 μg/ml, IAA = 25 μg/ml
  number of colonies counted: 53
TOP10 x pTEXCAT bacteria; chloramphenicol 500 μg/ml, IAA = 0
  number of colonies counted: 47
TOP10 x pTEXCAT bacteria; chloramphenicol 500 μg/ml, IAA = 25 μg/ml
  number of colonies counted: 71
TOP10 x pTEXCAT bacteria; [6]
  qualitative criterion of colony growth: −
  number of colonies counted: 0
TOP10 x pTEXCAT bacteria; [7]
  qualitative criterion of colony growth: −
  number of colonies counted: 1
TOP10 x pTEXCAT bacteria; [8]
  qualitative criterion of colony growth: −
  number of colonies counted: 0
TOP10 x pTEXCAT bacteria; [9]
  qualitative criterion of colony growth: −
  number of colonies counted: 0
TOP10 x pTEXCAT bacteria; [10]
  qualitative criterion of colony growth: −
  number of colonies counted: 0
TOP10 x pTEXCAT bacteria; [11]
  qualitative criterion of colony growth: −
  number of colonies counted: 0

## pTEX11′: vector derived from pTEX9′ with additional deletion, SEQ ID No. 35 (DNA UGAGGAGAGUAAUCAUGAAAGAAUUC)
[2]
  CAT expression: 124
